Results as given in PubChem BioAssay (NCI).
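Test compounds were applied to cells in 96-well plates for 48 hours at 5 doses. At the GI50, growth is halved. TGI denotes the concentration required for complete inhibition of growth.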

Columns and labels:
Experiment in all cases: NCI tumour cell line growth inhibition, 48 h
NCI-H226 lung = system: NCI-H226 lung
A498 renal = system: A498 renal
UACC-257 melanoma = system: UACC-257 melanoma
KM12 colon = system: KM12 colon
SNB-75 CNS = system: SNB-75 CNS
UACC-62 melanoma = system: UACC-62 melanoma
NCI-H522 lung = system: NCI-H522 lung
NCI/ADR-RES ovarian = system: NCI/ADR-RES ovarian
MDA-N = system: MDA-N
MDA-MB-435 = system: MDA-MB-435

SMILES | TGI (NCI-H226 lung) | TGI (A498 renal) | TGI (UACC-257 melanoma) | TGI (KM12 colon) | TGI (SNB-75 CNS) | TGI (UACC-62 melanoma) | TGI (NCI-H522 lung) | TGI (NCI/ADR-RES ovarian) | TGI (MDA-N) | TGI (MDA-MB-435) | GI50 (A498 renal) | GI50 (NCI-H226 lung) | GI50 (NCI/ADR-RES ovarian) | GI50 (UACC-257 melanoma) | GI50 (MDA-MB-435) | GI50 (KM12 colon) | GI50 (SNB-75 CNS) | GI50 (UACC-62 melanoma) | GI50 (NCI-H522 lung)
CN(C)CN(C)c1nc(N(C)C)nc(N(C)CN(C)C)n1 | > 100 µM | > 100 µM | > 100 µM | > 100 µM | > 100 µM | 40.9 µM | > 100 µM |  |  |  |  |  |  |  |  |  |  |  | 
NN/C(=N\S(=O)(=O)c1ccc(S(=O)(=O)c2ccccc2)s1)Nc1ccc(Cl)cc1 | > 100 µM | > 100 µM | 67.5 µM | 49.3 µM |  | 33.5 µM |  | > 100 µM | 41.8 µM |  |  |  |  |  |  |  |  |  | 
C(#Cc1ccccc1)SC1=C(c2ccccc2)S/C(=C(\SC#Cc2ccccc2)c2ccccc2)S1 | > 100 µM |  | > 100 µM | > 100 µM | > 100 µM | > 100 µM | > 100 µM | > 100 µM | > 100 µM | > 100 µM |  |  |  |  |  |  |  |  | 
O=C(Cc1ccccc1)NN1C(=O)/C(=C\c2ccccc2O)SC1=Nc1ccccc1 | > 100 µM | > 100 µM | > 100 µM | > 100 µM | > 100 µM | > 100 µM |  | > 100 µM | > 100 µM | > 100 µM |  |  |  |  |  |  |  |  | 
O=[N+]([O-])/C(C(Cl)=C(Cl)Cl)=C(/Nc1ccccc1)Sc1ccccc1 | 40.1 µM | 38.3 µM | 35.6 µM | 36 µM |  | 39.9 µM | 33.6 µM | 78.9 µM | 56.3 µM | 33.9 µM |  |  |  |  |  |  |  |  | 
C=CCNC(=S)/N=C/C(C(=O)Nc1ccccc1C)=C(\C)O | > 100 µM |  | > 100 µM | > 100 µM |  | > 100 µM | > 100 µM | > 100 µM | > 100 µM | > 100 µM |  |  |  |  |  |  |  |  | 
CCn1c2ccccc2c2cc(Nc3cc(C)[nH]c(=O)n3)ccc21 |  | > 100 µM | > 100 µM | > 100 µM |  | > 100 µM | > 100 µM | > 100 µM | > 100 µM | > 100 µM |  |  |  |  |  |  |  |  | 
COC1CC(OC2C(C)OC(OC3C(C)OC(OC4C(C)OC(O[C@H]5CC[C@@]6(C)C(=CC[C@]7(O)[C@@H]6C[C@@H](O)[C@@]6(C)[C@]7(O)CC[C@@]6(O)C(C)=O)C5)CC4OC)CC3OC)CC2OC)OC(C)C1O (stereo partly drawn) | > 12.5 µM |  | > 12.5 µM | > 12.5 µM | > 12.5 µM | > 12.5 µM | > 12.5 µM | > 12.5 µM | > 12.5 µM | > 12.5 µM |  |  |  |  |  |  |  |  | 
C(=C/c1nc2ccccc2o1)/c1ccc2c(c1)OCO2 | 55.2 µM | 56.8 µM | > 100 µM | 26.1 µM | > 63.8 µM | > 45.5 µM | 51.3 µM | 39.5 µM |  |  |  |  |  |  |  |  |  |  | 
CCCCC[C@H]1CCCCCCCCCC(=O)OC2C(O[C@@H]3OC(C)[C@H](OC(=O)[C@@H](C)CC)C(O[C@@H]4OC(C)[C@H](O)C(O)[C@@H]4O)[C@@H]3OC(=O)[C@H](C)CC)[C@H](OC3C(O)[C@@H](O)C(C)O[C@H]3O1)OC(CO)[C@H]2O (stereo partly drawn) |  |  | 29.2 µM | 35.8 µM |  | 30.9 µM | 34.2 µM | 36.9 µM | 31.4 µM |  |  |  |  |  |  |  |  |  | 
CCOC(=O)C(C)N1C(=O)c2ccccc2S1(=O)=O (stereo not drawn) | > 100 µM | > 100 µM | > 100 µM | > 100 µM | > 100 µM | > 100 µM | > 100 µM | > 100 µM |  |  | 29.1 µM |  |  |  |  |  |  |  | 
COC(=O)C(NC(=O)OC(C)(C)C)P(=O)(OC)OC (stereo not drawn) | > 100 µM | > 100 µM | > 100 µM | > 100 µM |  | > 100 µM | > 100 µM | > 100 µM | > 100 µM | > 100 µM |  |  |  |  |  |  |  |  | 
Cc1cc(=O)oc2c(CNC(CC(C)C)C(=O)O)c(O)ccc12 (stereo not drawn) | > 100 µM |  | > 100 µM | > 100 µM | > 100 µM | > 100 µM | > 100 µM | > 100 µM | > 100 µM | > 100 µM |  |  |  |  |  |  |  |  | 
CC(C)=NOC(=O)Nc1cccc2c1OCO2 | > 100 µM | > 100 µM | > 100 µM | > 100 µM | > 100 µM | > 100 µM | > 100 µM | > 100 µM |  | > 100 µM |  |  |  |  |  |  |  |  | 
COc1cc(/C=N/NC2=NCCN2)ccc1O | > 100 µM |  | > 100 µM | > 100 µM | > 100 µM | > 100 µM | > 100 µM | > 100 µM | > 100 µM | > 100 µM |  |  |  |  |  |  |  |  | 
COc1ccc(C2=NC(c3ccc(Cl)cc3)C(c3ccc(Cl)cc3)N2C(=O)N2CCNC(=O)C2)c(OC(C)C)c1 (stereo not drawn) | 4.19 µM | 3.55 µM | 4.84 µM | 3.69 µM | 4.8 µM | 3.4 µM | 4.09 µM | 3.83 µM |  | 3.63 µM | 1.89 µM | 2.08 µM | 1.92 µM | 2.64 µM | 1.92 µM | 1.84 µM | 2.37 µM | 1.9 µM | 2.09 µM
CC(C)C(NC(=O)C(Cc1ccccc1)NC(=O)[C@H]1CCC[C@H]1NC(=O)C(Cc1ccc(OC(C)(C)C)cc1)NC(=O)OC(C)(C)C)C(N)=O (stereo partly drawn) | 37.8 µM | 27.6 µM |  | 41.8 µM | 29.2 µM | 40.5 µM | 30.7 µM | > 100 µM | 35 µM | 34.3 µM |  |  |  |  |  |  |  |  | 
C=C(C)[C@@H]1CC[C@]2(C(=O)NC(C)=O)CC[C@]3(C)[C@H](CC[C@@H]4[C@@]5(C)CCCNC(C)(C)[C@@H]5CC[C@]43C)[C@@H]12 |  | 2.91 µM | 3.75 µM | 2.9 µM | 2.83 µM | 3.11 µM | 3.56 µM | 3.68 µM |  | 3.11 µM | 1.53 µM |  | 1.83 µM | 1.95 µM | 1.55 µM | 1.51 µM | 1.4 µM | 1.73 µM | 1.66 µM
CCCCCCCCCCCCOP(=O)(O)OP(=O)(O)OCC1OC(n2cc(C)c(=O)[nH]c2=O)CC1O (stereo not drawn) | > 100 µM | > 100 µM | > 100 µM | > 100 µM | > 100 µM |  | > 100 µM | > 100 µM | > 100 µM | > 100 µM |  |  |  |  |  |  |  |  | 
S=c1nc[nH]c2c1ncn2C1CCCO1 (stereo not drawn) |  | > 100 µM |  | > 100 µM | > 100 µM | > 100 µM | > 100 µM |  |  |  |  |  |  |  |  |  |  |  | 
Cc1ccc(S(=NS(=O)(=O)c2ccc(C)cc2)c2ccc(C)cc2)cc1 | > 100 µM |  | > 100 µM | > 100 µM |  |  |  | > 100 µM | > 100 µM | > 100 µM |  |  |  |  |  |  |  |  | 
